Assay results from patent publication US20230348371A1, “SULFONYLUREA DERIVATIVE AND MEDICAL USES THEREOF” (SHANGHAI SENHUI MEDICINE CO., LTD., priority 2020, published 2023).
Like-named read-outs stand apart in the source and are kept apart here.

Tests used:
[1] = In vivo pharmacokinetics after single intravenous injection in SD rats (plasma); settings: rat, single IV 5 mg/kg; for Vd: iv, 5 mg/kg; for MRT last: read-out: MRT(0-t); for MRT inf: read-out: MRT(0-∞)
Protocol: 1. […] The mixture was stirred or sonicated until completely dissolved to obtain a clear solution at a concentration of 1 mg/mL for administration by intravenous injection.
2. An appropriate amount of compound 3 or compound 6 was accurately weighed, and an appropriate volume of 5% DMSO+20% PG+20% PEG400+55% PBS (pH 8.0) was added thereto. The mixture was stirred or sonicated until completely dissolved to obtain a clear solution at a concentration of 1 mg/mL for administration by intravenous administration.
SPF grade SD rats, source: animals were transferred from the laboratory animal reserve bank (999M-017), Shanghai Sippe-Bk Lab Animal Co., Ltd.
3 rats/time point was set, blood samples were collected from the first 3 rats in each group, and cerebrospinal fluid and brain tissue were collected from the last 3 rats in each group. Blood sample: before administration and 5 min, 0.25 h, 0.5 h, 1 h, 1.5 h, 2 h, 4 h, 6 h, 8 h, 12 h and 24 h after administration. Tissue sample: cerebrospinal fluid and brain tissue were collected 10 min after administration.
Blood sample: blood was collected via jugular vein or other suitable means, and about 0.20 mL of blood was collected from each rat and added into an EDTA-K2 anticoagulation tube, which was then placed on ice after collection and centrifuged within 2 h for plasma separation (centrifugation conditions: 6800 g, 6 min, 2-8° C.). The collected plasma samples were stored in a refrigerator at −70° C. before analysis, and the residual plasma samples after analysis were still stored in the refrigerator at −70° C. for subsequent processing according to the requirements of the sponsor.
The concentration of each test compound in the plasma and tissue samples was determined. The accuracy of quality control samples was evaluated while analyzing the samples, and more than 66% of the quality control samples were required to have an accuracy between 80% and 120%.
The pharmacokinetic parameters such as AUC(0-t), T½, Cmax, Tmax and MRT were calculated from plasma concentration data at different time points using WinNonlin.
When plasma drug concentration-time curves were plotted, BLQ was recorded as 0. When the pharmacokinetic parameters were calculated, the concentration before administration was calculated as 0; BLQ before Cmax (including “No peak”) was calculated as 0; and BLQ that occurs after Cmax (including “No peak”) was excluded from the calculation.

SUR1 receptor = SUR1 receptor (Homo sapiens (Human), UniProt Q09428); assay: Binding activity for SUR1 receptor ([3H]-Glibenclamide displacement, SUR1 membrane); settings: SUR1 membrane protein, [3H]-Glibenclamide 2 nM, 37° C. 1 h
Protocol: The plate was incubated at 4° C. for 1 h. • f) The […]-96 GF/C and […]-96 GF/B plates were washed twice with Universal Harvester, each time with 50 mL of washing solution. • g) The SUR1 receptor reaction system was transferred to a […]-96 GF/B plate with Universal Harvester, and 900 μL of washing solution was added to each well to wash the GF/B plate 4 times. The washed […]-96 GF/B plate was dried in an oven at 55° C. for 10 min. • h) 40 μL of ULTIMA GOLD scintillation solution was added to each well, and the plate was read using Microbeta.

[2] = Sprague-Dawley (SD), read-out: Vss
[3] = Sprague-Dawley (SD), read-out: Vz

Sequence of SUR1 receptor (Q09428 whole entry): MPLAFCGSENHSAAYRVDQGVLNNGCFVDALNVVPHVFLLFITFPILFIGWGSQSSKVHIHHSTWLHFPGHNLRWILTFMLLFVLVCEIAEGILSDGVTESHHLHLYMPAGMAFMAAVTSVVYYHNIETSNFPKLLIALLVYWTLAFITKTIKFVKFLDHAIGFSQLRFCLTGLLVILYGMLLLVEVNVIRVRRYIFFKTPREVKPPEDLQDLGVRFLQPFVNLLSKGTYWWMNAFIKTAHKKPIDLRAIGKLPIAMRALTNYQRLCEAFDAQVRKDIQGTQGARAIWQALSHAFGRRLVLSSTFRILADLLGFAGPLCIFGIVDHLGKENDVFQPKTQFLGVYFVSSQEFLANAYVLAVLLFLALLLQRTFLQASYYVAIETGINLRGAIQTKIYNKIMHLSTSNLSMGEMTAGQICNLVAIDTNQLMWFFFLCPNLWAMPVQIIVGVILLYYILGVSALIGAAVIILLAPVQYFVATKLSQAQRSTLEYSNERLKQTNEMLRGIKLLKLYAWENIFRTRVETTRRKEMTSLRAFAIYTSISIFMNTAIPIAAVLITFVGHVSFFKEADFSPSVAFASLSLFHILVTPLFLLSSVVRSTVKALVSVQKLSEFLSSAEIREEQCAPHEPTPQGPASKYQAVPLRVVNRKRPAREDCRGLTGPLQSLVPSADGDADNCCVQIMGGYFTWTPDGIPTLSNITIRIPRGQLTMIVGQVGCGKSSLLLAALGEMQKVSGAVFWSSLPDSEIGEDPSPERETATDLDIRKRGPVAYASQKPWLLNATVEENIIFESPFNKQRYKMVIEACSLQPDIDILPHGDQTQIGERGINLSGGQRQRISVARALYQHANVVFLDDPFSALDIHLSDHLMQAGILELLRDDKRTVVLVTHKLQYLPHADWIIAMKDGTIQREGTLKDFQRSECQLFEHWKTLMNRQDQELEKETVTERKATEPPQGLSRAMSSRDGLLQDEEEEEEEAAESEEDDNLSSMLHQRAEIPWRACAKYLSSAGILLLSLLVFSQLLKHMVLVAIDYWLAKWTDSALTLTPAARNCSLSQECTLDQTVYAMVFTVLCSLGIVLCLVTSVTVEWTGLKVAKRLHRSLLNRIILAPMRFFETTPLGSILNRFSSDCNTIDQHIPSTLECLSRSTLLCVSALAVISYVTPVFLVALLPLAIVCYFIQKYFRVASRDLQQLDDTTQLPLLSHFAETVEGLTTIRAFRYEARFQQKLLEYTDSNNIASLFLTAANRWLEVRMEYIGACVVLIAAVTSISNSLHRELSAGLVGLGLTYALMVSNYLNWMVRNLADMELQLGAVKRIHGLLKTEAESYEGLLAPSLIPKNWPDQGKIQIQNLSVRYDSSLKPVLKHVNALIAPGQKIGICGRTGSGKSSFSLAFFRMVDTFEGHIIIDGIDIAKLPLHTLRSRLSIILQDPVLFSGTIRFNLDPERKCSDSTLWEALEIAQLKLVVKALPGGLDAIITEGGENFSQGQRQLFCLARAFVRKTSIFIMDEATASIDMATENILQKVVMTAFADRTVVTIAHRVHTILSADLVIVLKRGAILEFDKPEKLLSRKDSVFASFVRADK

Row | Vd ([1]; SD, read-out: Vss) | Vd ([1]; SD, read-out: Vz) | AUC(0-inf) [1] | AUC(0-t) [1] | Cmax [1] | Tmax [1] | half-life [1] | MRT last [1] | MRT inf [1] | SMILES | Vd [1, 2] | Vd [1, 3] | AUC(0-inf) ([1]; Sprague-Dawley (SD)) | AUC(0-t) ([1]; Sprague-Dawley (SD)) | Cmax ([1]; Sprague-Dawley (SD)) | Tmax ([1]; Sprague-Dawley (SD)) | half-life ([1]; Sprague-Dawley (SD)) | MRT last ([1]; Sprague-Dawley (SD)) | MRT inf ([1]; Sprague-Dawley (SD)) | IC50 (SUR1 receptor)
1 |  |  |  |  |  |  |  |  |  | O=C(NC1CCCCC1)NS(=O)(=O)c1ccc(CCNC(=O)c2cc(Cl)ccc2O)cc1 [Compound 1, 5-chloro-N-(4-(N-(cyclohexylcarbamoyl)sulfamoyl)phenethyl)-2-hydroxybenzamide] | 0.219 ± 0.0263 L/kg | 1 ± 0.202 L/kg | 28700 ± 4700 ng·h/mL | 28200 ng·h/mL | 65000 ± 3630 ng/mL | 6 min | 3.9 ± 0.6 h | 0.9 ± 0.3 h | 1.2 ± 0.1 h | 
2 |  |  |  |  |  |  |  |  |  | O=C(NC1CCCCC1)NS(=O)(=O)c1ccc(CCNC(=O)c2cc(Cl)ccc2OC(F)(F)F)cc1 [Compound 3, 5-chloro-N-(4-(N-(cyclohexylcarbamoyl)sulfamoyl)phenethyl)-2-(trifluoromethoxy)benzamide] | 0.303 ± 0.0141 L/kg | 0.51 ± 0.0307 L/kg | 36400 ± 1170 ng·h/mL | 35700 ± 1130 ng·h/mL | 32800 ± 1530 ng/mL | 6 min | 2.6 ± 0.1 h | 1.9 ± 0.1 h | 2.2 ± 0.1 h | 159 nM
3 | 0.119 ± 0.0123 L/kg | 1.66 ± 1.73 L/kg | 13000 ± 1480 ng·h/mL | 12900 ± 1460 ng·h/mL | 39600 ± 4730 ng/mL | 6 min | 3.1 ± 3.4 h | 0.3 ± 0.1 h | 0.3 ± 0.1 h | COc1ccc(Cl)cc1C(=O)NCCc1ccc(S(=O)(=O)NC(=O)N[C@H]2CC[C@H](O)CC2)cc1 [Compound 4, 5-chloro-N-(4-(N-(((1r,4r)-4-hydroxycyclohexyl)carbamoyl)sulfamoyl)phenethyl)-2-methoxybenzamide] |  |  |  |  |  |  |  |  |  | 
4 |  |  |  |  |  |  |  |  |  | COc1ccc(Cl)cc1C(=O)NCCc1ccc(S(=O)(=O)NC(=O)N[C@@H]2CCCC[C@H]2C#N)cc1 [Compound 6, 5-chloro-N-(4-(N-(((1R,2R)-2-cyanocyclohexyl)carbamoyl)sulfamoyl)phenethyl)-2-methoxybenzamide] | 3.44 ± 4.53 L/kg | 14.6 ± 19.1 L/kg | 4980 ± 288 ng·h/mL | 4660 ± 259 ng·h/mL | 11800 ± 1060 ng/mL | 6 min | 5.4 ± 2.1 h | 0.7 ± 0.1 h | 3.6 ± 4.8 h | 37 nM
5 |  |  |  |  |  |  |  |  |  | COc1ccc(C#N)cc1C(=O)NCCc1ccc(S(=O)(=O)NC(=O)NC2CCCCC2)cc1 [Compound 7, 5-cyano-N-(4-(N-(cyclohexylcarbamoyl)sulfamoyl)phenethyl)-2-methoxybenzamide] | 0.193 ± 0.0469 L/kg | 0.5 ± 0.16 L/kg | 28600 ± 7920 ng·h/mL | 28500 ± 7930 ng·h/mL | 42400 ± 8440 ng/mL | 6 min | 1.9 ± 0.2 h | 1 h | 1.1 h | 6 nM
6 |  |  |  |  |  |  |  |  |  | Cc1cnc(C(=O)NCCc2ccc(S(=O)(=O)NC(=O)NC3CCCCC3)cc2)cn1 [Glipizide, reference compound] |  |  |  |  |  |  |  |  |  | 230 nM
